± gives the expanded uncertainty stated by the source.
Assay: refractive index (Na D-line) (dimensionless); xn = mol fraction of the nth substance listed
Conditions: 101.32 kPa, Liquid, Standard Abbe refractometry

COCCOC [1,2-dimethoxyethane] + CCO
refractive index (288.15 K, x1 = 0.0045): 1.3633 ± 0.0005
refractive index (288.15 K, x1 = 0.0086): 1.3634 ± 0.0005
refractive index (288.15 K, x1 = 0.0125): 1.3635 ± 0.0005
refractive index (288.15 K, x1 = 0.0165): 1.3636 ± 0.0005
refractive index (288.15 K, x1 = 0.0205): 1.3638 ± 0.0005
refractive index (288.15 K, x1 = 0.0305): 1.3642 ± 0.0005
refractive index (288.15 K, x1 = 0.05): 1.3649 ± 0.0005
refractive index (288.15 K, x1 = 0.1): 1.3666 ± 0.0005
refractive index (288.15 K, x1 = 0.15): 1.3681 ± 0.0005
refractive index (288.15 K, x1 = 0.2): 1.3695 ± 0.0005
refractive index (288.15 K, x1 = 0.25): 1.3709 ± 0.0005
refractive index (288.15 K, x1 = 0.3): 1.3721 ± 0.0005
refractive index (288.15 K, x1 = 0.35): 1.3732 ± 0.0005
refractive index (288.15 K, x1 = 0.4): 1.3742 ± 0.0005
refractive index (288.15 K, x1 = 0.45): 1.3751 ± 0.0005
refractive index (288.15 K, x1 = 0.5): 1.376 ± 0.0005
refractive index (288.15 K, x1 = 0.55): 1.3768 ± 0.0005
refractive index (288.15 K, x1 = 0.6): 1.3776 ± 0.0005
refractive index (288.15 K, x1 = 0.6499): 1.3783 ± 0.0005
refractive index (288.15 K, x1 = 0.7): 1.379 ± 0.0005
refractive index (288.15 K, x1 = 0.7499): 1.3796 ± 0.0005
refractive index (288.15 K, x1 = 0.7999): 1.3802 ± 0.0005
refractive index (288.15 K, x1 = 0.85): 1.3808 ± 0.0005
refractive index (288.15 K, x1 = 0.9): 1.3813 ± 0.0005
refractive index (288.15 K, x1 = 0.9499): 1.3818 ± 0.0005
refractive index (288.15 K, x1 = 1): 1.3824 ± 0.0005
refractive index (298.15 K, x1 = 0.0045): 1.3592 ± 0.0005
refractive index (298.15 K, x1 = 0.0086): 1.3593 ± 0.0005
refractive index (298.15 K, x1 = 0.0125): 1.3594 ± 0.0005
refractive index (298.15 K, x1 = 0.0165): 1.3596 ± 0.0005
refractive index (298.15 K, x1 = 0.0205): 1.3597 ± 0.0005
refractive index (298.15 K, x1 = 0.0305): 1.3601 ± 0.0005
refractive index (298.15 K, x1 = 0.05): 1.3608 ± 0.0005
refractive index (298.15 K, x1 = 0.1): 1.3624 ± 0.0005
refractive index (298.15 K, x1 = 0.15): 1.3639 ± 0.0005
refractive index (298.15 K, x1 = 0.2): 1.3652 ± 0.0005
refractive index (298.15 K, x1 = 0.25): 1.3664 ± 0.0005
refractive index (298.15 K, x1 = 0.3): 1.3676 ± 0.0005
refractive index (298.15 K, x1 = 0.35): 1.3686 ± 0.0005
refractive index (298.15 K, x1 = 0.4): 1.3696 ± 0.0005
refractive index (298.15 K, x1 = 0.45): 1.3705 ± 0.0005
refractive index (298.15 K, x1 = 0.5): 1.3714 ± 0.0005
refractive index (298.15 K, x1 = 0.55): 1.3722 ± 0.0005
refractive index (298.15 K, x1 = 0.6): 1.3729 ± 0.0005
refractive index (298.15 K, x1 = 0.6499): 1.3736 ± 0.0005
refractive index (298.15 K, x1 = 0.7): 1.3742 ± 0.0005
refractive index (298.15 K, x1 = 0.7499): 1.3748 ± 0.0005
refractive index (298.15 K, x1 = 0.7999): 1.3754 ± 0.0005
refractive index (298.15 K, x1 = 0.85): 1.3759 ± 0.0005
refractive index (298.15 K, x1 = 0.9): 1.3764 ± 0.0005
refractive index (298.15 K, x1 = 0.9499): 1.3768 ± 0.0005
refractive index (298.15 K, x1 = 1): 1.3772 ± 0.0005
refractive index (308.15 K, x1 = 0.0045): 1.3552 ± 0.0005
refractive index (308.15 K, x1 = 0.0086): 1.3553 ± 0.0005
refractive index (308.15 K, x1 = 0.0125): 1.3554 ± 0.0005
refractive index (308.15 K, x1 = 0.0165): 1.3555 ± 0.0005
refractive index (308.15 K, x1 = 0.0205): 1.3557 ± 0.0005
refractive index (308.15 K, x1 = 0.0305): 1.356 ± 0.0005
refractive index (308.15 K, x1 = 0.05): 1.3566 ± 0.0005
refractive index (308.15 K, x1 = 0.1): 1.3582 ± 0.0005
refractive index (308.15 K, x1 = 0.15): 1.3596 ± 0.0005
refractive index (308.15 K, x1 = 0.2): 1.3609 ± 0.0005
refractive index (308.15 K, x1 = 0.25): 1.3621 ± 0.0005
refractive index (308.15 K, x1 = 0.3): 1.3631 ± 0.0005
refractive index (308.15 K, x1 = 0.35): 1.3641 ± 0.0005
refractive index (308.15 K, x1 = 0.4): 1.3651 ± 0.0005
refractive index (308.15 K, x1 = 0.45): 1.3659 ± 0.0005
refractive index (308.15 K, x1 = 0.5): 1.3667 ± 0.0005
refractive index (308.15 K, x1 = 0.55): 1.3675 ± 0.0005
refractive index (308.15 K, x1 = 0.6): 1.3682 ± 0.0005
refractive index (308.15 K, x1 = 0.6499): 1.3688 ± 0.0005
refractive index (308.15 K, x1 = 0.7): 1.3694 ± 0.0005
refractive index (308.15 K, x1 = 0.7499): 1.37 ± 0.0005
refractive index (308.15 K, x1 = 0.7999): 1.3705 ± 0.0005
refractive index (308.15 K, x1 = 0.85): 1.371 ± 0.0005
refractive index (308.15 K, x1 = 0.9): 1.3715 ± 0.0005
refractive index (308.15 K, x1 = 0.9499): 1.3719 ± 0.0005
refractive index (308.15 K, x1 = 1): 1.3722 ± 0.0005
refractive index (318.15 K, x1 = 0.0045): 1.351 ± 0.0005
refractive index (318.15 K, x1 = 0.0086): 1.3511 ± 0.0005
refractive index (318.15 K, x1 = 0.0125): 1.3512 ± 0.0005
refractive index (318.15 K, x1 = 0.0165): 1.3513 ± 0.0005
refractive index (318.15 K, x1 = 0.0205): 1.3515 ± 0.0005
refractive index (318.15 K, x1 = 0.0305): 1.3518 ± 0.0005
refractive index (318.15 K, x1 = 0.05): 1.3524 ± 0.0005
refractive index (318.15 K, x1 = 0.1): 1.3539 ± 0.0005
refractive index (318.15 K, x1 = 0.15): 1.3552 ± 0.0005
refractive index (318.15 K, x1 = 0.2): 1.3565 ± 0.0005
refractive index (318.15 K, x1 = 0.25): 1.3576 ± 0.0005
refractive index (318.15 K, x1 = 0.3): 1.3586 ± 0.0005
refractive index (318.15 K, x1 = 0.35): 1.3596 ± 0.0005
refractive index (318.15 K, x1 = 0.4): 1.3605 ± 0.0005
refractive index (318.15 K, x1 = 0.45): 1.3613 ± 0.0005
refractive index (318.15 K, x1 = 0.5): 1.362 ± 0.0005
refractive index (318.15 K, x1 = 0.55): 1.3628 ± 0.0005
refractive index (318.15 K, x1 = 0.6): 1.3634 ± 0.0005
refractive index (318.15 K, x1 = 0.6499): 1.364 ± 0.0005
refractive index (318.15 K, x1 = 0.7): 1.3646 ± 0.0005
refractive index (318.15 K, x1 = 0.7499): 1.3652 ± 0.0005
refractive index (318.15 K, x1 = 0.7999): 1.3657 ± 0.0005
refractive index (318.15 K, x1 = 0.85): 1.3661 ± 0.0005
refractive index (318.15 K, x1 = 0.9): 1.3666 ± 0.0005
refractive index (318.15 K, x1 = 0.9499): 1.3669 ± 0.0005
refractive index (318.15 K, x1 = 1): 1.3672 ± 0.0005
